Measurements taken from US11485740B2, “Inhibitors of TRPC6” (Boehringer Ingelheim International GmbH, priority 2018, dated 2022).
pIC50: −log10 of the molar value.

Target: T1, human TRPC6 (Homo sapiens, UniProt Q9Y210)
T1 construct: expressed in transfected cells
T1 sequence (Q9Y210 1-931): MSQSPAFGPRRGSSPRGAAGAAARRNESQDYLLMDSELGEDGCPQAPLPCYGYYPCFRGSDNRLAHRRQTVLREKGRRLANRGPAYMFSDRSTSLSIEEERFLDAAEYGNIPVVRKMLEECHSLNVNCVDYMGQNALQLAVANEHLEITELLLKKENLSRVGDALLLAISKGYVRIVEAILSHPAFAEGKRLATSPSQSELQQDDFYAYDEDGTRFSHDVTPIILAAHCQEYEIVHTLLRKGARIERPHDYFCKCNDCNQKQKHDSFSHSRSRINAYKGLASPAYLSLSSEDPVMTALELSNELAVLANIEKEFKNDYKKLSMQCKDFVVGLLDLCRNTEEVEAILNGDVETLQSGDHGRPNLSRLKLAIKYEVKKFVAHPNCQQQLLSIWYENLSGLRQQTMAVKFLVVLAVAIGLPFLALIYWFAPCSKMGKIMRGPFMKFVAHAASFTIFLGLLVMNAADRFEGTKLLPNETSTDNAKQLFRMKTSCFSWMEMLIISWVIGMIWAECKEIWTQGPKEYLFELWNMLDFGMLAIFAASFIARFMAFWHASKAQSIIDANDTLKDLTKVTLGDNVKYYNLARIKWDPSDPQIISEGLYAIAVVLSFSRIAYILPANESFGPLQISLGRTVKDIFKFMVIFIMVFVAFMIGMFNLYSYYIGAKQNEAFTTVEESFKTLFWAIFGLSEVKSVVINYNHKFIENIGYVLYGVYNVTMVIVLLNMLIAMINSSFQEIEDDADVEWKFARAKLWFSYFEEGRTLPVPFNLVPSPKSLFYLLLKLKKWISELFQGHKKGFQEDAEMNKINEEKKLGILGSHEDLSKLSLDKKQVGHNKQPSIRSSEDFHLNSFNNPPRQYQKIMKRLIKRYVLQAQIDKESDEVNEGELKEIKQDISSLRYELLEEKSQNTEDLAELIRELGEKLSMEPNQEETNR
Experiment: High throughput screening assay: Fluo4/AM calcium fluorescence in HEK293/TREx cells expressing human TRPC6, agonist GSK1702934A (single concentration 10 μM and IC50 curves)
Type: cell-based
Conditions: antagonist effect against human TRPC6, 7 concentrations 20 μM to 0.027 μM, triplicate
Excerpt: High Throughput Screening Assay
This screening assay measures human TRPC6 (transient receptor potential cation channel, subfamily C, member 6) ion channel activation via addition either of the commercially available DAG ligand analogue OAG (1-oleoyl-2-acetyl-sn-glycerol) or of the TRPC6 agonist 1-[1-(4,5,6,7,8-pentahydrocyclohepta[2,1-d]thiophen-2-ylcarbonyl)-4-piperidyl]-3-hydrobenzimidazol-2-one (GSK1702934A). The assay utilizes a fluorescent calcium sensor 4-(6-Acetoxymethoxy-2,7-difluoro-3-oxo-9-xanthenyl)-4′-methyl-2,2′-(ethylenedioxy)dianiline-N,N,N′,N′-tetraacetic acid tetrakis(acetoxymethyl) ester (Fluo4/AM) dye from Molecular Devices. Changes (increases) in intracellular calcium concentration as measured by the fluorescent signal increase provide a measurement of channel activity.
The commercially available HEK293/TREx line (Invitrogen) was stably transfected with a human TRPC6 construct and screened by conventional calcium imaging to find clones with human TRPC6 expression following stimulation with 1 μg/ml tetracycline. These cells were maintained in the growth medium recommended by the manufacturer supplemented with 100 μg/ml hygromycin to promote retention of the human TRPC6 construct. After growing to near confluency, cells were plated at a density of ^˜35,000 cells/well in 384 well CellBind plates (Corning) in the presence of 1 μg/ml tetracycline, and allowed to grow for 20-30 hrs. A nearly confluent monolayer resulted. Growth media was removed from the wells and cells were then loaded with […] Fluo4/AM diluted in Ringer's Solution (6.5 g NaCl, 0.42 g KCl, 0.25 g CaCl2) and 0.2 g of sodium bicarbonate; pH 7.4) supplemented with 1% Pluronic F-127 to a final concentration of 0.5 μM and incubated for 60 min, at room temperature. Dye solution was then removed from the cells by inverting plates with a sharp flick, and replaced with 25 μl Ringer's. Following ^˜0.5 hour for recovery from loading, cells were assayed using the Hamamatsu FDSS 6000 system, which permitted illumination at 485 nm. Frames were acquired at a rate of 0.2 Hz. During the assay, the plates were continuously vortexed, with pipette mixing of wells following addition of each reagent. For the screening assay, 26 μl of a diluted compound stock (at 50 μM) was added to each well for 2 minutes following the collection of a short (4 frame) baseline. 13 μl of agonist solution consisting of 125 nM GSK1702934A diluted in high-Ca2+Ringer solution (containing 90 mM Ca2+) was then added to each well, achieving a final concentration of 20 mM Ca2+ and 10 μM test compound. Data was collected for ^˜3 minutes following addition of high Ca2+Ringer. The fluorescent intensity observed at a particular timepoint for each well was divided by the initial fluorescent intensity for that well and the overall response was determined by averaging the resulting fluorescent ratio of the last 4 frames acquired during the experiment excepting the final frame. Negative and Positive controls were included on each plate. Negative controls wells consisted of HEK293/TREx TRPC6 cells exposed to assay buffer and agonist solution, but no test compound. Positive control consisted of wells consisted of HEK293/TREx TRPC6 cells exposed to 25 μM 3-[(2-chlorophenoxy)methyl]phenyl piperidyl ketone (Chembridge) diluted in Ringer's solution and agonist solution. These controls defined zero percent and 100 percent block respectively, and intensity of each well was normalized to these values.
Compounds were tested in triplicate at all concentrations. Standard software was used to fit IC50 curves.

Compound	pIC50
COc1cc(C(=O)N2CCN(c3cnc(N)cc3OC)CC2CC(F)F)ncc1-c1ccc(C(F)(F)F)cc1 (single isomer, unassigned) [Compound 109]	6.48
COc1cc(C(=O)N2CCN(c3cnc(N)cc3OC)C[C@H]2CC(F)F)ncc1-c1ccc(C(F)(F)F)cc1 (single isomer, unassigned) [Compound 110]	6.40
Nc1ccc(C2CCN(C(=O)c3ccc(-c4ccccc4)cc3)CC2)nn1 [Compound 1, [4-(6-Amino-pyridazin-3-yl)-piperidin-1-yl]-biphenyl-4-yl-methanone]	5.42
CCc1ccc(-c2ccc(C(=O)N3CCC(c4ccc(N)nn4)CC3)cc2)cc1 [Compound 2, [4-(6-Amino-pyridazin-3-yl)-piperidin-1-yl]-(4′-ethyl-biphenyl-4-yl)-methanone]	5.70
Cc1ccc(-c2ccc(C(=O)N3CCC(c4ccc(N)nn4)CC3)cc2)cc1 [Compound 3, [4-(6-Amino-pyridazin-3-yl)-piperidin-1-yl]-(4′-methyl-biphenyl-4-yl)-methanone]	5.77
Nc1ccc(C2CCN(C(=O)c3ccc(-c4ccc(Cl)cc4)cc3)CC2)nn1 [Compound 4, [4-(6-Amino-pyridazin-3-yl)-piperidin-1-yl]-(4′-chloro-biphenyl-4-yl)-methanone]	5.72
COc1ccc(-c2ccc(C(=O)N3CCC(c4ccc(N)nn4)CC3)cc2)cc1 [Compound 5, [4-(6-Amino-pyridazin-3-yl)-piperidin-1-yl]-(4′-methoxy-biphenyl-4-yl)-methanone]	5.60
Nc1ccc(C2CCN(C(=O)c3ccc(-c4cccc(Cl)c4)cc3)CC2)nn1 [Compound 6, [4-(6-Amino-pyridazin-3-yl)-piperidin-1-yl]-(3′-chloro-biphenyl-4-yl)-methanone]	5.36
Nc1ccc(C2CCN(C(=O)c3ccc(-c4ccc(F)cc4)cc3)CC2)nn1 [Compound 7, [4-(6-Amino-pyridazin-3-yl)-piperidin-1-yl]-(4′-fluoro-biphenyl-4-yl)-methanone]	5.47
Nc1ccc(C2CCN(C(=O)c3ccc(-c4cccc(F)c4)cc3)CC2)nn1 [Compound 8, [4-(6-Amino-pyridazin-3-yl)-piperidin-1-yl]-(3′-fluoro-biphenyl-4-yl)-methanone]	5.17
COc1cccc(-c2ccc(C(=O)N3CCC(c4ccc(N)nn4)CC3)cc2)c1 [Compound 9, [4-(6-Amino-pyridazin-3-yl)-piperidin-1-yl]-(3′-methoxy-biphenyl-4-yl)-methanone]	5.27
CC(C)(C)c1ccc(-c2ccc(C(=O)N3CCC(c4ccc(N)nn4)CC3)cc2)cc1 [Compound 10, [4-(6-Amino-pyridazin-3-yl)-piperidin-1-yl]-(4′-tert-butyl-biphenyl-4-yl)-methanone]	5.04
Nc1ccc(C2CCN(C(=O)c3ccc4c(c3)oc3ccccc34)CC2)nn1 [Compound 11, [4-(6-Amino-pyridazin-3-yl)-piperidin-1-yl]-dibenzofuran-3-yl-methanone]	5.70
Nc1ccc(N2CCN(C(=O)c3ccc(-c4ccc(C(F)(F)F)cc4)cc3)CC2)cn1 [Compound 12, [4-(6-Amino-pyridin-3-yl)-piperazin-1-yl]-(4′-trifluoromethyl-biphenyl-4-yl)-methanone]	5.62

Other lines, results leading:

pIC50	Compound
7.06	COc1cc(-c2cnc(C(=O)N3CCC(c4ccc(N)nn4)CC3)cc2OC)ccc1OC(F)(F)F [Compound 13]
5.48	COc1cc(-c2cnc(C(=O)N3CCC(c4ccc(N)nn4)CC3)cc2OC)ccc1F [Compound 14, [4-(6-Amino-pyridazin-3-yl)-piperidin-1-yl]-[5-(4-fluoro-3-methoxy-phenyl)-4-methoxy-pyridin-2-yl]-methanone]
5.77	COc1cc(C(=O)N2CCC(c3ccc(N)nn3)CC2)ncc1-c1ccc(F)c(OCC(F)(F)F)c1 [Compound 15, [4-(6-Amino-pyridazin-3-yl)-piperidin-1-yl]-{5-(4-fluoro-3-(2,2,2-trifluoro-ethoxy)-phenyl]-4-methoxy-pyridin-2-yl}-methanone]
6.41	COc1cc(C(=O)N2CCC(c3ccc(N)nn3)CC2)ncc1-c1ccc2c(c1)OCC2 [Compound 16, [4-(6-Amino-pyridazin-3-yl)-piperidin-1-yl]-[5-(2,3-dihydro-benzofuran-6-yl)-4-methoxy-pyridin-2-yl]-methanone]
7.12	COc1cc(C(=O)N2CCC(c3ccc(N)nn3)CC2)ncc1-c1ccc(OCC2CC2)cc1 [Compound 17, [4-(6-Amino-pyridazin-3-yl)-piperidin-1-yl]-[5-(4-cyclopropylmethoxy-phenyl)-4-methoxy-pyridin-2-yl]-methanone]
5.57	COc1cc(C(=O)N2CCC(c3ccc(N)nn3)CC2)ncc1-c1ccc(OCC2CC2)c(Cl)c1 [Compound 18]
6.21	COc1cc(C(=O)N2CCC(c3ccc(N)nn3)CC2)ncc1-c1ccc(OC(C)C)c(Cl)c1 [Compound 19]
6.35	COc1cc(C(=O)N2CCC(c3ccc(N)nn3)CC2)ncc1-c1ccc(OC(C)C)c(F)c1 [Compound 20, [4-(6-Amino-pyridazin-3-yl)-piperidin-1-yl]-[5-(3-fluoro-4-isopropoxy-phenyl)-4-methoxy-pyridin-2-yl]-methanone]
6.80	COc1cc(C(=O)N2CCC(c3ccc(N)nn3)CC2)ncc1-c1cccc(OCC2CC2)c1 [Compound 21, [4-(6-Amino-pyridazin-3-yl)-piperidin-1-yl]-[5-(3-cyclopropylmethoxy-phenyl)-4-methoxy-pyridin-2-yl]-methanone]
6.37	COc1cc(C(=O)N2CCC(c3ccc(N)nn3)CC2)ncc1-c1ccc2c(c1)OCCO2 [Compound 22, [4-(6-Amino-pyridazin-3-yl)-piperidin-1-yl]-[5-(2,3-dihydro-benzo[l ,4]dioxin-6-yl)-4-methoxy-pyridin-2-yl]-methanone]
7.16	COc1cc(C(=O)N2CCC(c3ccc(N)nn3)CC2)ncc1-c1ccc(OC2CCCC2)cc1 [Compound 23, [4-(6-Amino-pyridazin-3-yl)-piperidin-1-yl]-[5-(4-cyclopentyloxy-phenyl)-4-methoxy-pyridin-2-yl]-methanone]
6.38	COc1cc(C(=O)N2CCC(c3ccc(N)nn3)CC2)ncc1-c1ccc(C(F)(F)F)cc1Cl [Compound 24, [4-(6-Amino-pyridazin-3-yl)-piperidin-1-yl]-[5-(2-chloro-4-trifluoromethyl-phenyl)-4-methoxy-pyridin-2-yl]-methanone]
6.47	COc1cc(C(=O)N2CCC(c3ccc(N)nn3)CC2)ncc1-c1ccc(C(F)(F)F)c(OC)c1 [Compound 25]
